Results from US20090197929A1, “Azolylmethyloxiranes, Their Use for Controlling Phytopathogenic Fungi and Agents Containing Said Compounds” (BASF SE, priority 2006, published 2009).

How the values were obtained:
[1] = test system: Puccinia recondita; experiment: Protective activity against Puccinia recondita on wheat (brown rust of wheat) (Puccrt P1); type: in vivo; conditions: 250 ppm active compound, potted wheat seedlings sprayed to runoff, inoculated next day; untreated plants 90% infected
Procedure: The active compounds were prepared separately or jointly as a stock solution comprising 25 mg of active compound which was made up to 10 ml using a mixture of acetone and/or DMSO and the emulsifier Wettol EM 31 (wetting agent having emulsifying and dispersing action based on ethoxylated alkylphenols) in a volume ratio of solvent/emulsifier of 99:1. The mixture was then made up to 100 ml with water. This stock solution was diluted with the solvent/emulsifier/water mixture described to give the concentration of active compound stated below. Leaves of potted wheat seedlings were sprayed to runoff point with an aqueous suspension having the active compound concentration stated below. The next day, the treated plants were inoculated with a spore suspension of brown rust of wheat (Puccinia recondita). The plants were then placed in a chamber with high atmospheric humidity (90 to 95%) at 20 to 22° C. for 24 hours. During this time, the spores germinated and the germ tubes penetrated into the leaf tissue. The next day, the test plants were returned to the greenhouse and cultivated at temperatures between 20 and 22° C. and at 65 to 70% relative atmospheric humidity for a further 7 days. The extent of the rust fungus development on the leaves was then determined visually.

[2] = test system: Pyrenophora teres; experiment: Activity against net blotch of barley caused by Pyrenophora teres at 1 day protective application (Pyrnte P1); type: in vivo, Pyrenophora [syn. Drechslera] teres on barley; conditions: 250 ppm active compound, potted barley seedlings sprayed to runoff, inoculated after 24 hours, assessed after 6 days; untreated plants 90% infected
Procedure: The active compounds were prepared separately or jointly as a stock solution comprising 25 mg of active compound which was made up to 10 ml using a mixture of acetone and/or DMSO and the emulsifier Wettol EM 31 (wetting agent having emulsifying and dispersing action based on ethoxylated alkylphenols) in a volume ratio of solvent/emulsifier of 99:1. The mixture was then made up to 100 ml with water. This stock solution was diluted with the solvent/emulsifier/water mixture described to give the concentration of active compound stated below. Leaves of potted barley seedlings were sprayed to runoff point with an aqueous suspension having the active compound concentration stated below. 24 hours after the spray coat had dried on, the test plants were inoculated with an aqueous spore suspension of Pyrenophora [syn. Drechslera] teres, the net blotch pathogen. The test plants were then placed in a greenhouse at temperatures between 20 and 24° C. and at 95 to 100% relative atmospheric humidity. After 6 days, the extent of the development of the disease was determined visually in % infection of the entire leaf area.

With `Fc1ccc([C@@]2(Cn3cncn3)O[C@@H]2c2cc(Cl)sc2Cl)cc1` (racemic) [1-{[(2SR,3RS)-3-(2,5-dichlorothiophen-3-yl)-2-(4-fluorophenyl)oxiran-2-yl]methyl}-1H-1,2,4-triazole] the “infection (extent of rust fungus development on the leaves, determined visually)” value [1] was 0% and the “infection (% infection of the entire leaf area, determined visually)” value [2] was 15%.
